According to patent publication US8688227B2, “Suction electrode-based medical instrument and system including the medical instrument for therapeutic electrotherapy” (Old Dominion Research Foundation, priority 2007, dated 2014):
Like-named read-outs stand apart in the source and are kept apart here.

Legend:
nsPEF-exposed cells = assay: Whole-cell patch clamp of membrane conductance/resistance after nsPEF exposure; format: cell-based
Procedure: Experiments were performed in GH3 cells (a murine pituitary cell line) and HeLa cells (human epithelial cancer), both obtained from American Type Culture Collection (ATCC, Manassas, Va.) and cultured according to their recommendations. Cells were grown in 75-cm2 flasks at 37° C. with 5% CO2 in air. GH3 cells were cultured in Ham's F12K medium supplemented with 2.5% fetal bovine serum (FBS) and 15% horse serum (Atlanta Biologicals, Norcross, Ga.). HeLa cells were propagated in Eagle minimum essential medium with 10% FBS. The cultures also contained 1% L-glutamine and 1% penicillin/streptomycin (Mediatech Cellgro, Herndon, Va.). For passaging, cells were removed from the substrate with 2-3 ml of 0.25% Trypsin with 2.21 mM EGTA. The cultures were maintained in the logarithmic stage of growth and used at passages 3-15. For a passage immediately preceding the experiments, cells were grown attached to 8- or 10-nun diameter glass cover slips in 35-mm Petri dishes. The cover slips were pretreated with poly-1-lysine (Sigma-Aldrich, St. Louis, Mo.) to improve cell adherence.
These pairs were formulated to explore, in the first approximation, how different ion substitutions would affect Gm and the reversal potential (Erev) after nsPEF exposure. Two pairs (Cs/Na and Cs/Ba-TEA) were also used to explore nsPEF effects on voltage-gated Na^+ and Ca^2+ channels, respectively. In general, solution pairs from the top to the bottom of the Table 1 contain diminishing amounts and variety of monovalent ions, i.e., K and/or Na were replaced with larger cs^+, TEA^+, or NMDG^+. The contents of anions (C1 and HEPES) were kept almost constant and the same in bath and pipette solutions, except for the last pair, where most of the pipette C1 was replaced with HEPES^−. The pH of pipette and bath solutions was adjusted to 7.4 and 7.2, respectively; the ionic contents shown in Table 1 already include any extra amounts of ions added as a base or acid for pH adjustment. The osmolality of all solutions was between 290 and 320 mOsm, as measured with a freezing point microosmometer (Advanced Instruments, Inc., Norwood, Mass., USA).
Patch clamp recording: Cells on a cover slip were transferred into a glass-bottomed chamber (Warner Instruments, Hamden, Conn.) mounted on a motorized stage (Prior Scientific Inc., Rockland, Mass.) of an IX71 FluoView™ 300 confocal laser scanning microscope. […] The data from these experiments were analyzed differently (see below). […]
Once the whole-cell configuration was formed, the membrane resistance and capacitance (Rm and Cm) were measured using the Membrane Test utility of pClamp1 0 software. […] The membrane potential (MP) was measured by switching briefly from voltage to current clamp mode at I=0. […]

hippocampal CA1 neurons = details: cited from earlier work
liver cells = details: oxidative stress-activated NSCCs; cited from earlier work
GH3 or HeLa cells = assay: PI uptake, positive control for permeabilization; format: cell-based; details: 0.03% added into the bath
Procedure: Moreover, the cells remained impermeable to PI even after extra-long trains of 200 pulses, which caused necrotic changes in cells morphology, and even when the observation period was extended to 30-60 min after the exposure.

## [Cl][Gd]([Cl])[Cl] [Gd^3+]
nsPEF-exposed cells; 0.2 mM, first trials
  protective effect against nsPEF: no protection
Hippocampal CA1 neurons; 100 AM
  swelling and other deleterious effects of oxygen-glucose deprivation: reduced swelling
Liver cells
  number of necrotic cells: sharply decreased

## [Cl][La]([Cl])[Cl] [La^3+]
Hippocampal CA1 neurons; 100 AM
  swelling and other deleterious effects of oxygen-glucose deprivation: reduced swelling

## N.N.N.N.N.N.N.N.N.N.N.N.N.N.[Cl-].[Cl-].[Cl-].[Cl-].[Cl-].[Cl-].[O-2].[O-2].[Ru+3].[Ru+3].[Ru+4] [ruthenium red]
nsPEF-exposed cells; 10 p.M in bath of K/Na pair, prior to 1 or 5 pulses
  membrane conductance increase by nsPEF: neither enhanced nor inhibited
nsPEF-exposed cells; 50 and 200 μM in bath of K/Na pair
  effect on control (sham-exposed) cells: no apparent effect
nsPEF-exposed cells; 50 and 200 μM in bath of K/Na pair, prior to 1 or 5 pulses
  condition of nsPEF-exposed cells: worsened the condition
Hippocampal CA1 neurons; 1 ilM
  swelling and other deleterious effects of oxygen-glucose deprivation: reduced swelling

## C[C@@H]1CC[C@@]2(OC1)O[C@H]1[C@@H](O)[C@H]3[C@@H]4CC[C@H]5C[C@@H](O[C@@H]6O[C@H](CO)[C@H](O[C@@H]7O[C@H](CO)[C@@H](O)[C@H](O[C@@H]8OC[C@@H](O)[C@H](O)[C@H]8O)[C@H]7O[C@@H]7O[C@H](CO)[C@H](O)[C@H](O[C@@H]8O[C@H](CO)[C@@H](O)[C@H](O)[C@H]8O)[C@H]7O)[C@H](O)[C@H]6O)[C@H](O)C[C@]5(C)[C@H]4CC[C@]3(C)[C@H]1[C@@H]2C [digitonin]
GH3 or HeLa cells
  time to bright PI fluorescence after addition: 1 to 2 min
GH3 or HeLa cells; PI in the medium
  permeabilization, PI fluorescence: bright PI fluorescence
